# Data from patent US8143226B2, “Tyrosine kinase receptor antagonists and methods of treatment for breast cancer” (The Regents of the University of California, priority 2005, dated 2012).
# Tests used:
# MCF-7/HER2-18 cells = experiment: Tamoxifen and/or NDGA growth inhibition of MCF-7/HER2-18 cells (CyQuant); assay type: cell-based; conditions: Homo sapiens
# Experimental: (§1) Cells were estrogen-starved for three days in DMEM containing 10% charcoal-[…]-stripped FCS (CDSS) prior to their plating in 96 well plates. Cells were plated in 100 μl of the same media, allowed to adhere overnight, and then were switched to DMEM+10% CDSS supplemented with 100 pM estrogen. […] The media and inhibitors were refreshed on day 3, the cultures were harvested on day 6, and a CyQuant assay was performed as described above.
# AKT/PKB = experiment: Akt/PKB phosphorylation in MCF-7/HER2-18 cells (western blot); assay type: cell-based, human
# Experimental: […]. Enzyme linked immunosorbent assays (ELISA) for phosphorylated IGF-1R and HER2 IGF-1R phosphorylation was determined by ELISA as described previously for the insulin receptor [Youngren JF, Goldfine ID and Pratley RE: Decreased muscle insulin receptor kinase con-elates with insulin resistance in normoglycemic Pima Indians. Am J Physiol 273: E276-83, 1997]. Briefly, 10 μg lysate protein were added to triplicate wells in a 96-well plate coated with monoclonal antibody to the IGF-IR (IR3; 2 μg/ml), and incubated for 18 hours at 4° C. Plates were washed five times and then HRP-conjugated anti-phosphotyrosine antibody (0.3 μg/ml), diluted in Solution B (50 mM HEPES, pH 7.6, 150 mM NaCl, 0.05% Tween-20, 1 mM PMSF, 2 mM vanadate and 1 mg/ml bacitracin), was added for two hours at 22° C. Plates were washed five times prior to color development with TMB substrate, which was terminated with 1.0 M H3PO4. Values for receptor phosphorylation were determined by measuring absorbance at 450 nm.
# Total protein extracts (10 μg), prepared as described above from cells cultured in the presence or absence of IGF-1 and/or RTK inhibitors, were subjeccted to SDS-PAGE and subsequently transferred to nitrocellulose membranes. […] Membranes were washed again and bound antibodies detected by enhanced chemiluminescence (Pierce). […]
# MCF-7/neo cells = experiment: Tamoxifen and/or NDGA growth inhibition of MCF-7/neo cells (CyQuant); assay type: cell-based; conditions: Homo sapiens, MCF7
# Experimental: as §1
# IGF-1R = IGF-1R (Homo sapiens, UniProt P08069); experiment: Tyrosine kinase activity of partially purified IGF-1R on poly Glu4:Tyr1 (ELISA); assay type: biochemical; design: made in house; host or cells: CHO cells (CHOIGF-1R / CHO-IGFR), partially purified by wheat germ agglutinin chromatography
# Sequence of IGF-1R (P08069 31-1367): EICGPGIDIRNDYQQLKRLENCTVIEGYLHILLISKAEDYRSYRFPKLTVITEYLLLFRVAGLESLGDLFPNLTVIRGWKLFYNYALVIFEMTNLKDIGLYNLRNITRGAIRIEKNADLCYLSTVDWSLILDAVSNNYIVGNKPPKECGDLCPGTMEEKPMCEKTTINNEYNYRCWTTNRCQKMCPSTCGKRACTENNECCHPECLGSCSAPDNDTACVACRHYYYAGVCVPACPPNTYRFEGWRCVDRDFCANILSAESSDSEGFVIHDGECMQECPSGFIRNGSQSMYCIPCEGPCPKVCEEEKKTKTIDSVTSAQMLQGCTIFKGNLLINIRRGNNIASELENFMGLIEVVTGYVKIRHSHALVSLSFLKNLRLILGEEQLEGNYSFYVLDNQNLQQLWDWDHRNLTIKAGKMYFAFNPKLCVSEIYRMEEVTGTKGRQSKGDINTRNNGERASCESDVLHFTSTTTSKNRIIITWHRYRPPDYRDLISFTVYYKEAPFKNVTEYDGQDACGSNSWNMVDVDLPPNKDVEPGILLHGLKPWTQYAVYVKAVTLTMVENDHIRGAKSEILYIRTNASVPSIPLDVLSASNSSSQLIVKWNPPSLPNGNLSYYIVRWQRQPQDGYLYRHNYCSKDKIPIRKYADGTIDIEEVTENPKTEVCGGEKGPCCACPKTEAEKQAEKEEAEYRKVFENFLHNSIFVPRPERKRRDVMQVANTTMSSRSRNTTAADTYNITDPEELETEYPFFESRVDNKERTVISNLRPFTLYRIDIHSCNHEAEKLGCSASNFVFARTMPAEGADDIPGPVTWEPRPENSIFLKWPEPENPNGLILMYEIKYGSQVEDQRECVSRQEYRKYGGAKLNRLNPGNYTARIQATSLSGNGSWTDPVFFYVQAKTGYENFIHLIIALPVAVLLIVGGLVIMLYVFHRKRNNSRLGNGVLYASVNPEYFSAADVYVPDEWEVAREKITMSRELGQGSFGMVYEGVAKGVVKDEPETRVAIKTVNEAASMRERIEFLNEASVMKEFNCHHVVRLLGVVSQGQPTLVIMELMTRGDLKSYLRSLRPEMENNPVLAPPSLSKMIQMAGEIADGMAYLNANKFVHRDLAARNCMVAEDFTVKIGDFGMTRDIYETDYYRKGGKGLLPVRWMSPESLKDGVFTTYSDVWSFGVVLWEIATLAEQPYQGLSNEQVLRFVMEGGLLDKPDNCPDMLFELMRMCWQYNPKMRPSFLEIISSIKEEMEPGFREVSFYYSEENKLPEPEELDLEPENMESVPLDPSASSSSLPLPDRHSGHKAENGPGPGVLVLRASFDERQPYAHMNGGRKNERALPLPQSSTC
# Experimental: IGF-1 and HER2/neu receptors were partially purified by WGA chromatography of cells overexpressing the protein of interest. To isolate IGF-1R, CHO cells transfected with and overexpressing the human IGF-1R (CHOIGF-1R) were plated in T-150 flasks and grown in DMEM supplemented with 10% fetal calf serum (FCS) until 80% confluent. Cells were harvested in the basal state and solubilized in 50 mM HEPES, 10% glycerol, 1% Triton X-100, 150 mM NaCl, 5 μM EGTA, 0.24 mg/ml aminoethyl-benzensulfonyl fluoride (AEBSF), 10 μg/ml aprotinin, 25 mM benzamidine, 10 μg soybean trypsin inhibitor, and 5 μg/ml leuptin for one hour at 4° C. Samples were centrifuged for 60 minutes at 100,000 g and solubilized extract collected. Rodent HER2/neu receptors were collected from MCNeuA cells crown under identical conditions and processed similarly. Lysates from both cell lines were loaded onto a 1 ml wheat germ agglutin (WGA) column (Pharmacia, Piscataway, N.J.), washed with WGA buffer (50 mM HEPES pH 7.6, 150 mM NaCl, 0.1% Triton X-100, 1 mg/ml bacitracin, and 1 mM PMSF). Receptors were then eluted with WGA buffer supplemented with 0.3 N N-Acetyl-D-glucosamine. WGA fractions containing RTK of interest were determined by SDS page and a western blot that employed antibodies against either the IGF-1R or HER2/neu as appropriate. […]
structure (smiles),measurement,setting,value
"CC(Cc1ccc(O)c(O)c1)C(C)Cc1ccc(O)c(O)c1 (centres unmarked) [NDGA, nordihydroguaiaretic acid]",inhibition at 10 µM,MCF-7/HER2-18 cells,9%
same,inhibition at 15 µM,MCF-7/HER2-18 cells,38%
same,IGF-1 stimulated phosphorylation of AKT/PKB,AKT/PKB; 3 nM IGF-1,inhibited
same,level of phospho-AKT/PKB,AKT/PKB; absence of IGF-1,decreased
same,inhibition at 10 µM,MCF-7/neo cells,23%
same,inhibition at 15 µM,MCF-7/neo cells,55%
same,lowest concentration reducing IGF-1 stimulated tyrosine phosphorylation of poly Glu4:Tyr1,IGF-1R; NDGA 20 minutes prior to 10 nM IGF-1,0.3 µM
same,concentration inhibiting IGF-1-stimulated tyrosine kinase activity of isolated IGF-1R,IGF-1R; summary statement,≤ 10 µM
